Results reported in publication PMC11995724, “Antibiotic target discovery by integrated phenotypic and activity-based profiling of electrophilic fragments” (Cell chemical biology, 2025).
Counter-ions that a name gives are not always drawn.

Assay: in vitro
Settings: human, hek293t cells

With Cc1ccc(CN(C(=O)CCl)C2CC2)o1 [6-E03, 2-chloro-N-cyclopropyl-N-[(5-methylfuran-2-yl)methyl]acetamide] the viability at 48 h, 25 µM was 0.647%.

In the case of O=C(CCl)NCc1[nH]nc2c1CCCC2 [6-E04, 2-chloro-N-[(4,5,6,7-tetrahydro-2H-indazol-3-yl)methyl]acetamide], the viability at 48 h, 25 µM is reported as 59.9%.

In the case of CC(Cl)C(=O)NC(=O)NCc1cccs1 (stereo not shown) [6-E05, 3-(2-chloropropanoyl)-1-[(thiophen-2-yl)methyl]urea], the viability at 48 h, 25 µM is reported as 106%.

For Cc1c(NC(=O)C(C)Cl)c(=O)n(-c2ccccc2)n1C (stereo not shown) [6-E06, 2-chloro-N-(1,5-dimethyl-3-oxo-2-phenyl-2,3-dihydro-1H-pyrazol-4-yl)propanamide], the viability at 48 h, 25 µM was 109%.

CC(Cl)C(=O)N1CC(=O)Nc2ccccc21 (stereo not shown) [6-E07, 4-(2-chloropropanoyl)-1,2,3,4-tetrahydroquinoxalin-2-one] gave a viability at 48 h, 25 µM of 117%.

CC(Cl)C(=O)Nc1cccc([N+](=O)[O-])c1 (stereo not shown) [6-E08, 2-chloro-N-(3-nitrophenyl)propanamide] gave a viability at 48 h, 25 µM of 98.7%.

For O=C(CCl)Nc1cc(-n2nnnc2C2CC2)ccc1F [6-E09, 2-chloro-N-[5-(5-cyclopropyl-1H-1,2,3,4-tetrazol-1-yl)-2-fluorophenyl]acetamide], the viability at 48 h, 25 µM was 2.11%.

In the case of Cc1cc(C)c(NC(=O)C(C)Cl)c(Cl)c1 (stereo not shown) [6-E10, 2-chloro-N-(2-chloro-4,6-dimethylphenyl)propanamide], the viability at 48 h, 25 µM is reported as 109%.

With CC(Cl)C(=O)NCCC1=CCCCC1 (stereo not shown) [6-E11, 2-chloro-N-[2-(cyclohex-1-en-1-yl)ethyl]propanamide] the viability at 48 h, 25 µM was 99%.

With O=C(CCl)NC(c1ccccc1)C1CCCCC1 (stereo not shown) [6-E12, 2-chloro-N-[cyclohexyl(phenyl)methyl]acetamide] the viability at 48 h, 25 µM was 1.12%.

In the case of Cc1nnnn1-c1ccc(F)c(NC(=O)CCl)c1 [6-E13, 2-chloro-N-[2-fluoro-5-(5-methyl-1H-1,2,3,4-tetrazol-1-yl)phenyl]acetamide], the viability at 48 h, 25 µM is reported as 1.24%.

For O=C(CCl)NCCc1cccc2ccccc12 [6-E14, 2-chloro-N-[2-(naphthalen-1-yl)ethyl]acetamide], the viability at 48 h, 25 µM was 4.85%.

Compound CCN(C(=O)CCl)c1ccccc1 [6-E15, 2-chloro-N-ethyl-N-phenylacetamide] has a viability at 48 h, 25 µM of 1.62%.

Work on CCCC(=O)N1CCC(NC(=O)CCl)c2ccccc21 (stereo not shown) [6-E16, N-(1-butanoyl-1,2,3,4-tetrahydroquinolin-4-yl)-2-chloroacetamide] yielded a viability at 48 h, 25 µM of 17.5%.

For CC1CCN(Cc2csc(NC(=O)CCl)n2)CC1 [6-E17, 2-chloro-N-{4-[(4-methylpiperidin-1-yl)methyl]-1,3-thiazol-2-yl}acetamide hydrochloride], the viability at 48 h, 25 µM was 0.0269%.

O=C(CCl)NCC1(c2ccc(F)cc2)CCCC1 [6-E18, 2-chloro-N-{[1-(4-fluorophenyl)cyclopentyl]methyl}acetamide] showed a viability at 48 h, 25 µM of 5.22%.

For O=C(CCl)NCCc1ncc(F)cn1 [6-E19, 2-chloro-N-[2-(5-fluoropyrimidin-2-yl)ethyl]acetamide], the viability at 48 h, 25 µM was 104%.

Work on O=C(CCl)NCc1ccc(NC(=O)C2CC2)cc1 [6-E20, N-{4-[(2-chloroacetamido)methyl]phenyl}cyclopropanecarboxamide] yielded a viability at 48 h, 25 µM of 2.09%.

Work on CC(Cl)C(=O)NC(C)(C)c1ccc(F)cc1F (stereo not shown) [6-E21, 2-chloro-N-[2-(2,4-difluorophenyl)propan-2-yl]propanamide] yielded a viability at 48 h, 25 µM of 93.5%.

O=C(CCl)NCc1ccc(N2CCOCC2)nc1 [6-E22, 2-chloro-N-{[6-(morpholin-4-yl)pyridin-3-yl]methyl}acetamide] showed a viability at 48 h, 25 µM of 8.26%.

With Cc1cc(C)cc(OCCN(C)C(=O)CCl)c1 [6-F03, 2-chloro-N-[2-(3,5-dimethylphenoxy)ethyl]-N-methylacetamide] the viability at 48 h, 25 µM was 0.538%.

Compound O=C(CCl)NCC(=O)N1CCC(Cc2ccccc2)CC1 [6-F04, N-[2-(4-benzylpiperidin-1-yl)-2-oxoethyl]-2-chloroacetamide] has a viability at 48 h, 25 µM of 21.7%.
